In PubChem BioAssay (NCI):
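The compound was tested at five concentrations on cells cultured in 96-well plates, with a 48-hour exposure period. GI50: concentration for 50% inhibition of growth. At the TGI there is no net growth.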

Assays:
Experiment in all cases: growth of human tumour cells (NCI), 48 h
KM12 colon = test system: KM12 colon
SN12C renal = test system: SN12C renal
SR leukemia = test system: SR leukemia
SF-295 CNS = test system: SF-295 CNS
RXF 393 renal = test system: RXF 393 renal
SW-620 colon = test system: SW-620 colon
SK-MEL-2 melanoma = test system: SK-MEL-2 melanoma
U251 CNS = test system: U251 CNS
OVCAR-5 ovarian = test system: OVCAR-5 ovarian
LOX IMVI melanoma = test system: LOX IMVI melanoma
UO-31 renal = test system: UO-31 renal
SK-MEL-28 melanoma = test system: SK-MEL-28 melanoma
NCI-H23 lung = test system: NCI-H23 lung
CAKI-1 renal = test system: CAKI-1 renal
DLD-1 colon = test system: DLD-1 colon
DMS 114 small cell lung = test system: DMS 114 small cell lung
HT29 colon = test system: HT29 colon
NCI-H226 lung = test system: NCI-H226 lung
OVCAR-3 ovarian = test system: OVCAR-3 ovarian
MALME-3M melanoma = test system: MALME-3M melanoma
OVCAR-8 ovarian = test system: OVCAR-8 ovarian
SF-539 CNS = test system: SF-539 CNS
M19-MEL melanoma = test system: M19-MEL melanoma
DMS 273 small cell lung = test system: DMS 273 small cell lung
A549 NSCLC = test system: A549 NSCLC
UACC-257 melanoma = test system: UACC-257 melanoma
SNB-19 CNS = test system: SNB-19 CNS
M14 melanoma = test system: M14 melanoma
EKVX NSCLC = test system: EKVX NSCLC
TK-10 renal = test system: TK-10 renal
SNB-75 CNS = test system: SNB-75 CNS
HOP-18 NSCLC = test system: HOP-18 NSCLC
SK-MEL-5 melanoma = test system: SK-MEL-5 melanoma
COLO 205 colon = test system: COLO 205 colon
SNB-78 CNS = test system: SNB-78 CNS
NCI-H460 lung = test system: NCI-H460 lung
HCT-15 colon = test system: HCT-15 colon
HCC-2998 colon = test system: HCC-2998 colon
IGROV1 ovarian = test system: IGROV1 ovarian
SK-OV-3 ovarian = test system: SK-OV-3 ovarian
UACC-62 melanoma = test system: UACC-62 melanoma
OVCAR-4 ovarian = test system: OVCAR-4 ovarian
HCT-116 colon = test system: HCT-116 colon
MOLT-4 leukemia = test system: MOLT-4 leukemia
A498 renal = test system: A498 renal
SF-268 CNS = test system: SF-268 CNS
LXFL 529 NSCLC = test system: LXFL 529 NSCLC
KM20L2 colon = test system: KM20L2 colon
786-0 renal = test system: 786-0 renal
NCI-H522 lung = test system: NCI-H522 lung
HL-60(TB) leukemia = test system: HL-60(TB) leukemia
K-562 leukemia = test system: K-562 leukemia
HOP-92 NSCLC = test system: HOP-92 NSCLC
HOP-62 NSCLC = test system: HOP-62 NSCLC
ACHN renal = test system: ACHN renal
CCRF-CEM leukemia = test system: CCRF-CEM leukemia

N#C[S-].[Ce+3].c1ccc(-c2ccccn2)nc1.c1ccc(-c2ccccn2)nc1.c1ccc(-c2ccccn2)nc1
GI50 (KM12 colon): 38 µM
TGI (KM12 colon): > 100 µM
GI50 (SN12C renal): 12.8 µM
TGI (SN12C renal): > 100 µM
GI50 (SR leukemia): 25.7 µM
TGI (SR leukemia): > 100 µM
GI50 (SF-295 CNS): 4.72 µM
TGI (SF-295 CNS): 49 µM
GI50 (RXF 393 renal): 22.7 µM
TGI (RXF 393 renal): 98.4 µM
GI50 (SW-620 colon): 38.9 µM
TGI (SW-620 colon): > 100 µM
GI50 (SK-MEL-2 melanoma): 25.4 µM
TGI (SK-MEL-2 melanoma): 63.1 µM
GI50 (U251 CNS): 13.3 µM
TGI (U251 CNS): > 100 µM
GI50 (OVCAR-5 ovarian): 6.15 µM
TGI (OVCAR-5 ovarian): 42.9 µM
GI50 (LOX IMVI melanoma): 4.2 µM
TGI (LOX IMVI melanoma): 63.7 µM
GI50 (UO-31 renal): 4.46 µM
TGI (UO-31 renal): 28.7 µM
GI50 (SK-MEL-28 melanoma): 15.3 µM
TGI (SK-MEL-28 melanoma): > 100 µM
GI50 (NCI-H23 lung): 26.9 µM
TGI (NCI-H23 lung): 97.3 µM
GI50 (CAKI-1 renal): 10.8 µM
TGI (CAKI-1 renal): 91.3 µM
GI50 (DLD-1 colon): 5.26 µM
TGI (DLD-1 colon): > 100 µM
GI50 (DMS 114 small cell lung): 23.9 µM
TGI (DMS 114 small cell lung): 78.8 µM
GI50 (HT29 colon): 10.6 µM
TGI (HT29 colon): > 100 µM
GI50 (NCI-H226 lung): 18 µM
TGI (NCI-H226 lung): 63.1 µM
GI50 (OVCAR-3 ovarian): 43.1 µM
TGI (OVCAR-3 ovarian): > 100 µM
GI50 (MALME-3M melanoma): 23 µM
TGI (MALME-3M melanoma): 60.7 µM
GI50 (OVCAR-8 ovarian): 13.5 µM
TGI (OVCAR-8 ovarian): > 100 µM
GI50 (SF-539 CNS): 27.3 µM
TGI (SF-539 CNS): > 100 µM
GI50 (M19-MEL melanoma): 15.4 µM
TGI (M19-MEL melanoma): 65.8 µM
GI50 (DMS 273 small cell lung): 11 µM
TGI (DMS 273 small cell lung): 33.9 µM
GI50 (A549 NSCLC): 24.8 µM
TGI (A549 NSCLC): > 100 µM
GI50 (UACC-257 melanoma): 21.4 µM
TGI (UACC-257 melanoma): 64.1 µM
GI50 (SNB-19 CNS): 45.6 µM
TGI (SNB-19 CNS): > 100 µM
GI50 (M14 melanoma): 6.24 µM
TGI (M14 melanoma): 24.7 µM
GI50 (EKVX NSCLC): 8.61 µM
TGI (EKVX NSCLC): > 100 µM
GI50 (TK-10 renal): 11 µM
TGI (TK-10 renal): 97.6 µM
GI50 (SNB-75 CNS): 15.2 µM
TGI (SNB-75 CNS): > 100 µM
GI50 (HOP-18 NSCLC): 4.33 µM
TGI (HOP-18 NSCLC): 46.8 µM
GI50 (SK-MEL-5 melanoma): 3.78 µM
TGI (SK-MEL-5 melanoma): 20.4 µM
GI50 (COLO 205 colon): 33 µM
TGI (COLO 205 colon): > 100 µM
GI50 (SNB-78 CNS): 58.3 µM
TGI (SNB-78 CNS): > 100 µM
GI50 (NCI-H460 lung): 13.1 µM
TGI (NCI-H460 lung): > 100 µM
GI50 (HCT-15 colon): 5.18 µM
TGI (HCT-15 colon): > 100 µM
GI50 (HCC-2998 colon): 18.3 µM
TGI (HCC-2998 colon): > 100 µM
GI50 (IGROV1 ovarian): 24.5 µM
TGI (IGROV1 ovarian): 69 µM
GI50 (SK-OV-3 ovarian): 27 µM
TGI (SK-OV-3 ovarian): 60.7 µM
GI50 (UACC-62 melanoma): 20.6 µM
TGI (UACC-62 melanoma): 55.2 µM
GI50 (OVCAR-4 ovarian): 13.2 µM
TGI (OVCAR-4 ovarian): > 100 µM
GI50 (HCT-116 colon): 30.5 µM
TGI (HCT-116 colon): > 100 µM

NCCCNCc1c2ccccc2c(CNCCCN)c2ccccc12
TGI (KM12 colon): 43.9 µM
TGI (MOLT-4 leukemia): 43.9 µM
TGI (SN12C renal): 18.5 µM
TGI (SF-295 CNS): 56.2 µM
TGI (RXF 393 renal): 35.7 µM
TGI (SW-620 colon): 26 µM
TGI (SK-MEL-2 melanoma): 28.2 µM
TGI (A498 renal): 76.8 µM
TGI (U251 CNS): > 100 µM
TGI (OVCAR-5 ovarian): 62.1 µM
TGI (SF-268 CNS): 20.2 µM
TGI (UO-31 renal): > 100 µM
TGI (LXFL 529 NSCLC): 24.5 µM
TGI (NCI-H23 lung): 49.7 µM
TGI (CAKI-1 renal): > 100 µM
TGI (DLD-1 colon): > 100 µM
TGI (KM20L2 colon): 53.4 µM
TGI (DMS 114 small cell lung): 37.8 µM
TGI (786-0 renal): 36.2 µM
TGI (NCI-H522 lung): 21 µM
TGI (HL-60(TB) leukemia): 39.3 µM
TGI (HT29 colon): 94.3 µM
TGI (OVCAR-3 ovarian): 98.5 µM
TGI (MALME-3M melanoma): 24.2 µM
TGI (OVCAR-8 ovarian): 33.9 µM
TGI (SF-539 CNS): 28.9 µM
TGI (M19-MEL melanoma): 35.4 µM
TGI (K-562 leukemia): 32.5 µM
TGI (HOP-92 NSCLC): 49.1 µM
TGI (HOP-62 NSCLC): 62.6 µM
TGI (A549 NSCLC): 82.6 µM
TGI (UACC-257 melanoma): 45.1 µM
TGI (SNB-19 CNS): > 100 µM
TGI (EKVX NSCLC): 43.5 µM
TGI (TK-10 renal): > 100 µM
TGI (SNB-75 CNS): 44 µM
TGI (HOP-18 NSCLC): 75 µM
TGI (SK-MEL-5 melanoma): 66.6 µM
TGI (COLO 205 colon): 22.8 µM
TGI (SNB-78 CNS): 60.1 µM
TGI (NCI-H460 lung): 32.6 µM
TGI (HCT-15 colon): 54.1 µM
TGI (ACHN renal): > 100 µM
TGI (CCRF-CEM leukemia): 46.6 µM
TGI (HCC-2998 colon): 30.9 µM
TGI (IGROV1 ovarian): > 100 µM
TGI (UACC-62 melanoma): > 100 µM
TGI (OVCAR-4 ovarian): 26.5 µM
TGI (HCT-116 colon): 48.2 µM
